In ChEMBL document CHEMBL6087455 (Eur J Med Chem, 2025):
pIC50: −log10 of the molar value. The source made the active and inactive calls. The calls are words filed in the database; no cut-off is given here.

Key:
[1] = biological target: T1, Acetylcholinesterase (Rattus norvegicus, UniProt P37136); experiment: Inhibition of wistar rat brain AChE using acetylthiocholine iodide as substrate preincubated for 10 mins followed by substrate addition and measured after 5 mins by DTNB reagent based spectrophotometric Ellman's method
T1 sequence (P37136 whole entry): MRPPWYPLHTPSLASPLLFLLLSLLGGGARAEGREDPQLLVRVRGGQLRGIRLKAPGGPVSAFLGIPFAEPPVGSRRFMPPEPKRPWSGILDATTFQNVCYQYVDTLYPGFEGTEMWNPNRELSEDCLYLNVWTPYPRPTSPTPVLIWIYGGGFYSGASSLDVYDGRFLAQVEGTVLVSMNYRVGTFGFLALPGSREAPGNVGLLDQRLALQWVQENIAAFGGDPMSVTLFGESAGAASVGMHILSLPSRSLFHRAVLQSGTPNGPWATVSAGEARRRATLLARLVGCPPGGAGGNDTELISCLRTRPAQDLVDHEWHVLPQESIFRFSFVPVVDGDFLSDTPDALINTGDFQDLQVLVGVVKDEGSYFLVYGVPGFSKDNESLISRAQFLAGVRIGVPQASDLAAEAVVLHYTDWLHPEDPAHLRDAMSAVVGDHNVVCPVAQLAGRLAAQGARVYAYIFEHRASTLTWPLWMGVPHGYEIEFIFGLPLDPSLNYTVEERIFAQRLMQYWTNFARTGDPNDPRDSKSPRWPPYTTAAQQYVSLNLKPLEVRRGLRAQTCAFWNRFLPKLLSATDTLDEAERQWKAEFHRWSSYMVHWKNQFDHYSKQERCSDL

[2] = tested on: BV-2; experiment: Neuroprotective activity against LPS-induced neuronal damage in mouse BV-2 cells assessed as increase in cell viability at 1 uM preincubated with compound for 1 hrs followed by LPS addition and measured after 24 hrs by Muse cell analyzer; type: functional, cell-based; settings: time 25.0 hrs
[3] = tested on: BV-2; experiment: Antioxidant activity in LPS-induced mouse BV-2 cells assessed as reduction in ROS production at 1 uM preincubated with compound for 1 hrs followed by LPS addition and measured after 24 hrs by Muse cell analyzer relative to control; type: functional; parameters: scale not given: the % may be the effect or the level left
[4] = tested on: BV-2; experiment: Neuroprotective activity against LPS-induced neuronal damage in mouse BV-2 cells assessed as cell viability at 1 uM preincubated with compound for 1 hrs followed by LPS addition and measured after 24 hrs by Muse cell analyzer (reference value: 79.2 +/- 1.1 %); type: functional; settings: time 25 hrs, read-out: Activity
[5] = tested on: Caenorhabditis elegans; experiment: Anti-alzheimer activity in amyloid-beta aggregation induced Caenorhabditis elegans GMC101 assessed as increase in worm motility at 10 uM administered from day 4 of adulthood and measured on day 5 to 7; type: functional, organism-based; settings: time 4.0 day
[6] = tested on: Neuronal like cell; experiment: Neuroprotective activity against LPS/TNF-alpha-induced damage in human neuronal like cells assessed as increase in cell proliferation at 10 uM preincubated with compounds for 24 hrs followed by compound washout and measured after 16 hrs of LPS/TNF-alpha addition by MTS assay; type: functional, cell-based
[7] = tested on: Neuronal like cell; experiment: Antioxidant activity in human neuronal like cells assessed as reduction in LPS/TNF-alpha-induced ROS production at 10 uM preincubated with compound for 24 hrs followed by compound washout and measured after 16 hrs of LPS/TNF-alpha addition by H2DCF-DA based fluorescence analysis; type: functional
[8] = biological target: Amyloid-beta precursor protein (Homo sapiens) (UniProt P05067); experiment: Inhibition of amyloid beta (1 to 42) (unknown origin) self aggregation at 10 uM preincubated with compound for 24 hrs followed by compound washout and measured after 24 hrs by ThT fluorescence based spectrophotometric analysis
[9] = Induction of H2S release in PBS at pH 7.4 assessed as H2S concentration at 1 mM measured after 30 mins in presence of L-cysteine by Apollo-4000 free radical analyzer; type: functional
[10] = tested on: Caenorhabditis elegans; experiment: Anti-alzheimer activity in amyloid-beta aggregation induced Caenorhabditis elegans GMC101 assessed as increase in worm fitness at 10 uM administered from day 4 of adulthood and measured on day 7 relative to control; type: functional; settings: time 4 day
[11] = tested on: A549; experiment: Induction of autophagy in human A549 cells assessed as increase in LC3-II level at >3 uM measured after 24 hrs by Western blotting analysis; type: functional, cell-based
[12] = Neuroprotective activity against LPS/TNF-alpha-induced damage in human neuronal like cells assessed as restoration of cell function at 10 uM preincubated with compounds for 72 hrs followed by compound washout and measured after 16 hrs of LPS/TNF-alpha addition by MTS assay relative to control; type: functional
[13] = tested on: Caenorhabditis elegans; experiment: Anti-alzheimer activity in amyloid-beta aggregation induced Caenorhabditis elegans GMC101 assessed as improvement in displacement per bend of worm at 10 uM administered from day 4 of adulthood and measured on day 7; type: functional, organism-based; settings: time 4.0 day
[14] = tested on: Caenorhabditis elegans; experiment: Anti-alzheimer activity in amyloid-beta aggregation induced Caenorhabditis elegans GMC101 assessed as improvement in speed of worm movement at 10 uM administered from day 4 of adulthood and measured on day 7; type: functional, organism-based; settings: time 4.0 day
[15] = tested on: A549; experiment: Induction of autophagy in human A549 cells assessed as decrease in p62 level at >3 uM measured after 24 hrs by Western blotting analysis relative to control; type: functional; parameters: scale not given: the % may be the effect or the level left
[16] = tested on: A549; experiment: Induction of autophagy in human A549 cells transfected with LC3-GFP plasmid assessed as increase in number of LC3 puncta at >3 uM measured after 24 hrs by high-content confocal microscopic analysis; type: functional, cell-based
[17] = tested on: A549; experiment: Cytotoxicity against human A549 cells transfected with LC3-GFP plasmid assessed as decrease in cell number upto 10 uM; type: toxicity, cell-based; settings: a549, 10 µM

Sequence of Amyloid-beta precursor protein (Homo sapiens) (P05067 whole entry): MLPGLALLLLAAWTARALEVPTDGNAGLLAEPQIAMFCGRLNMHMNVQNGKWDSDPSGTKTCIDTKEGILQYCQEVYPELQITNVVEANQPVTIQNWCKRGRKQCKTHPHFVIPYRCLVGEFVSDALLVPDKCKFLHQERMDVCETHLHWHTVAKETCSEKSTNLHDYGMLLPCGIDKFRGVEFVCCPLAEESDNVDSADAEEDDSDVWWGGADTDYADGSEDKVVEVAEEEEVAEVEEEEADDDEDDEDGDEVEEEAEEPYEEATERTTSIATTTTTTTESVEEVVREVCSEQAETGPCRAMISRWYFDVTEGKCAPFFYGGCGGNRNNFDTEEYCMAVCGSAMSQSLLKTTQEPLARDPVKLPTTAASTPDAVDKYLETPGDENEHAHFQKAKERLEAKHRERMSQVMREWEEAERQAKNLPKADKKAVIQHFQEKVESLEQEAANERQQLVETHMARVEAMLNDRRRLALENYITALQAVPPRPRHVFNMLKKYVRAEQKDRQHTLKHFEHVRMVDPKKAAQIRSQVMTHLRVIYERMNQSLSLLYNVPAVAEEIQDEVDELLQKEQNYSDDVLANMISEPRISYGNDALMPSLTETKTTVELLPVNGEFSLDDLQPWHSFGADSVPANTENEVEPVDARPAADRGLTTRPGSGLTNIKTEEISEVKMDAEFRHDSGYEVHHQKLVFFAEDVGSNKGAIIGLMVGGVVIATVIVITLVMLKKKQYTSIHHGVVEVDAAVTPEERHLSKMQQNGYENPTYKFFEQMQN

SMILES | pIC50 [1] | Activity [2] | Activity ([3]; time 25 hrs) | viability at 1 µM [4] | also measured
CCN(C)C(=O)Oc1cccc(CCN=C=S)c1 | 5.86 | inactive | 10% | – | –
CCN(C)C(=O)Oc1cccc([C@H](C)N(C)C)c1 [RIVASTIGMINE] | – | – | ~10% | 84.1% | –
CCN(C)C(=O)Oc1cccc(CN=C=S)c1 | 5.66 | – | 10% | 85.3% | –
CCN(C)C(=O)Oc1cccc(C(N)=S)c1 | 6.36 | – | 23% | 85.7% | Activity [5]: Active; Activity [6]: Active; Activity [7]: Active; inhibition [8]: Active; Comparable Activity With Nahs Observed; Activity [9]: 10 µM; Activity [10]: 10.5%; Activity [11]: Active; Activity [12]: 100%; Activity [13]: Active; Activity [14]: Active; Slight Effect Observed; Activity [15]: ~50%; Activity [16]: Active; Activity [17]: Non-toxic
CCN(C)C(=O)Oc1cccc(NC(=O)COc2ccc(-c3cc(=S)ss3)cc2)c1 | 6.39 | inactive | – | – | Activity ([3]; time 25.0 hrs): inactive
[Na+].[SH-] [SODIUM HYDROSULFIDE] | – | – | 27% | 87.2% | –
CCN(C)C(=O)Oc1cccc(N=C=S)c1 | 6.06 | – | 10% | 85.5% | –
CCN(C)C(=O)Oc1cccc(NC(=O)c2ccc(N=C=S)cc2)c1 | 6.29 | inactive | 10% | – | –
